Results reported in PubChem BioAssay AID330 (DTP/NCI, 2004).
Several values for one entry are separate records, joined by “and”; a condition that tells them apart may be missing. Equal entries are not always repeated. Toxic doses and inconclusive results are not listed. How the source made its calls: active means survival T/C of 150% or more; inactive means T/C below 125% in these data.

System: P388 leukemia ip, CD2F1 mice, survival T/C
Test: NCI In Vivo Anticancer Drug Screen. Data for tumor model P388 Leukemia (intraperitoneal) in CD2F1 (CDF1) mice
Details: endpoint: median survival time, higher = longer survival
In short: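 Mice carrying the transplanted tumor received test compound or vehicle. Survival was recorded in each group, and the value is the treated-group measurement divided by that of the vehicle-treated control group.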

[1] = dose: 100.0 mg/kg/injection, schedule: Q01DX009 (ip), vehicle: Klucel (hydroxypropylcellulose) (HPC)
[2] = dose: 200.0 mg/kg/injection, schedule: Q01DX009 (ip), vehicle: Klucel (hydroxypropylcellulose) (HPC)
[3] = dose: 50.0 mg/kg/injection, schedule: Q01DX005 (ip), vehicle: Klucel (hydroxypropylcellulose) (HPC)
[4] = dose: 100.0 mg/kg/injection, schedule: Q01DX005 (ip), vehicle: Klucel (hydroxypropylcellulose) (HPC)
[5] = dose: 200.0 mg/kg/injection, schedule: Q01DX005 (ip), vehicle: Klucel (hydroxypropylcellulose) (HPC)
[6] = dose: 12.5 mg/kg/injection, schedule: Q01DX009 (ip), vehicle: saline with Tween-80
[7] = dose: 50.0 mg/kg/injection, schedule: Q01DX005 (ip), vehicle: saline with Tween-80
[8] = dose: 60.0 mg/kg/injection, schedule: Q01DX005 (ip), vehicle: saline with Tween-80
[9] = dose: 120.0 mg/kg/injection, schedule: Q01DX005 (ip), vehicle: saline with Tween-80
[10] = dose: 240.0 mg/kg/injection, schedule: Q01DX005 (ip), vehicle: saline with Tween-80

Measured: T/C

CC1(Cc2ccccc2)NC(=O)NC1=O (stereo unspecified)
inactive: dose: 50.0 mg/kg/injection, schedule: Q01DX009 (ip), vehicle: Klucel (hydroxypropylcellulose) (HPC) 100 % of control | [1] 104 % of control | [2] 105 % of control

CN1C2CCC1CC(O)(c1ccc(Cl)cc1)C2 (stereo unspecified)
inactive: dose: 12.5 mg/kg/injection, schedule: Q01DX005 (ip), vehicle: Klucel (hydroxypropylcellulose) (HPC) 100 % of control | dose: 25.0 mg/kg/injection, schedule: Q01DX005 (ip), vehicle: Klucel (hydroxypropylcellulose) (HPC) 100 % of control | [3] 107 % of control | [4] 109 % of control

CC(=O)C1(c2ccccc2)CCN(c2c3ccccc3nc3ccccc23)CC1
inactive: dose: 100.0 mg/kg/injection, schedule: Q04DX003 (ip), vehicle: Klucel (hydroxypropylcellulose) (HPC) 108 % of control | dose: 200.0 mg/kg/injection, schedule: Q04DX003 (ip), vehicle: Klucel (hydroxypropylcellulose) (HPC) 111 % of control

FC(F)(F)c1nc(SCc2ccc(Cl)cc2)n[nH]1
inactive: dose: 30.0 mg/kg/injection, schedule: Q01DX005 (ip), vehicle: Klucel (hydroxypropylcellulose) (HPC) 103 % of control | dose: 60.0 mg/kg/injection, schedule: Q01DX005 (ip), vehicle: Klucel (hydroxypropylcellulose) (HPC) 96 % of control | dose: 120.0 mg/kg/injection, schedule: Q01DX005 (ip), vehicle: Klucel (hydroxypropylcellulose) (HPC) 98 % of control | dose: 240.0 mg/kg/injection, schedule: Q01DX005 (ip), vehicle: Klucel (hydroxypropylcellulose) (HPC) 102 % of control

N=[N+]=CC(=O)OCC(N)C(=O)O (stereo unspecified)
inactive: dose: 2.3 mg/kg/injection, schedule: Q01DX009 (ip), vehicle: water 118 % of control | dose: 6.25 mg/kg/injection, schedule: Q04DX003 (ip), vehicle: water 120 % of control | dose: 18.8 mg/kg/injection, schedule: Q01DX009 (ip), vehicle: water 86 % of control and 91 % of control | dose: 40.0 mg/kg/injection, schedule: Q01DX009 (ip), vehicle: saline 107 % of control and 121 % of control | dose: 50.0 mg/kg/injection, schedule: Q04DX003 (ip), vehicle: water 111 % of control
active: dose: 20.0 mg/kg/injection, schedule: Q01DX009 (ip), vehicle: saline 169 % of control | dose: 25.0 mg/kg/injection, schedule: Q01DX009 (ip), vehicle: saline 153 % of control | dose: 25.0 mg/kg/injection, schedule: Q04DX003 (ip), vehicle: water 157 % of control | dose: 41.7 mg/kg/injection, schedule: Q01DX009 (ip), vehicle: saline 166 % of control

CC(=O)Nc1ccc(S(=O)(=O)Oc2noc3ccccc23)cc1
inactive: [3] 108 % of control | [4] 96 % of control | [5] 102 % of control

COc1ccc(OC)c(C=Nc2ccc(S(=O)(=O)Nc3nccc(C)n3)cc2)c1
inactive: [6] 90 % of control | dose: 25.0 mg/kg/injection, schedule: Q01DX009 (ip), vehicle: saline with Tween-80 90 % of control | dose: 50.0 mg/kg/injection, schedule: Q01DX009 (ip), vehicle: saline with Tween-80 87 % of control | dose: 200.0 mg/kg/injection, schedule: Q01DX009 (ip), vehicle: saline with Tween-80 100 % of control

CCOC(=O)C1=C(C)NC(=O)NC1c1ccc(N(C)C)cc1 (stereo unspecified)
inactive: [3] 90 % of control | [4] 95 % of control | [5] 97 % of control

CCOC(=O)C12CCCCC1OC(=N)C2 (stereo unspecified)
inactive: dose: 60.0 mg/kg/injection, schedule: Q01DX005 (ip), vehicle: Klucel + Tween-80 101 % of control | dose: 120.0 mg/kg/injection, schedule: Q01DX005 (ip), vehicle: Klucel + Tween-80 98 % of control | dose: 240.0 mg/kg/injection, schedule: Q01DX005 (ip), vehicle: Klucel + Tween-80 99 % of control

CCCCCCCCCCCCCCCC(=O)OCC(COP(=O)(O)OCC(COC(=O)CCCCCCCCCCCCCCC)OC(=O)CCCCCCCCCCCCCCC)OC(=O)CCCCCCCCCCCCCCC (stereo unspecified)
inactive: dose: 50.0 mg/kg/injection, schedule: Q01DX009 (ip), vehicle: saline 98 % of control | dose: 100.0 mg/kg/injection, schedule: Q01DX009 (ip), vehicle: saline 100 % of control | dose: 200.0 mg/kg/injection, schedule: Q01DX009 (ip), vehicle: saline 101 % of control

N#Cc1c(N)nsc1N1CCOCC1
inactive: dose: 12.5 mg/kg/injection, schedule: Q01DX005 (ip), vehicle: saline with Tween-80 98 % of control | dose: 25.0 mg/kg/injection, schedule: Q01DX005 (ip), vehicle: saline with Tween-80 104 % of control | [7] 98 % of control

Fc1ccccc1C(Nc1nc2ccccc2s1)Nc1nc2ccccc2s1
inactive: [3] 109 % of control | [4] 104 % of control | [5] 113 % of control

COc1ccc(CCN2CCC(Nc3nc4ccccc4n3Cc3ccc(F)cc3)CC2)cc1
inactive: [7] 92 % of control | dose: 100.0 mg/kg/injection, schedule: Q01DX005 (ip), vehicle: saline with Tween-80 95 % of control

N#Cc1c(N)nc(-c2ccccc2)nc1Nc1ccccc1
inactive: [8] 90 % of control | [9] 104 % of control | [10] 99 % of control

NC(=O)c1ccc(N=Nc2c(O)c3ccccc3[nH]c2=O)cc1
inactive: dose: 50.0 mg/kg/injection, schedule: Q01DX005 (ip), vehicle: saline + Tween-80 + alcohol 105 % of control | dose: 100.0 mg/kg/injection, schedule: Q01DX005 (ip), vehicle: saline + Tween-80 + alcohol 93 % of control | dose: 200.0 mg/kg/injection, schedule: Q01DX005 (ip), vehicle: saline + Tween-80 + alcohol 89 % of control

COc1cc(C(=O)C(CN(C)C)CN(C)C)cc(OC)c1OC
inactive: dose: 12.5 mg/kg/injection, schedule: Q01DX005 (ip), vehicle: saline 101 % of control | dose: 25.0 mg/kg/injection, schedule: Q01DX005 (ip), vehicle: saline 100 % of control | dose: 50.0 mg/kg/injection, schedule: Q01DX005 (ip), vehicle: saline 107 % of control and 114 % of control

NC(=O)c1ccccc1NCCc1ccccc1
inactive: dose: 25.0 mg/kg/injection, schedule: Q04DX003 (ip), vehicle: saline with Tween-80 91 % of control | dose: 50.0 mg/kg/injection, schedule: Q04DX003 (ip), vehicle: saline with Tween-80 100 % of control | dose: 100.0 mg/kg/injection, schedule: Q04DX003 (ip), vehicle: saline with Tween-80 104 % of control and 97 % of control | dose: 400.0 mg/kg/injection, schedule: Q04DX003 (ip), vehicle: saline with Tween-80 97 % of control

COc1nc2n[nH]nc2c(=O)n1C
inactive: [8] 104 % of control | [9] 102 % of control | [10] 101 % of control

Nc1nnc2nc(CC(=O)c3cccc([N+](=O)[O-])c3)c(CC(=O)c3cccc([N+](=O)[O-])c3)nn12
inactive: [8] 96 % of control | [9] 100 % of control | [10] 100 % of control

CC(=O)N/C(=C\c1ccc([N+](=O)[O-])cc1)c1nc2ccccc2s1
inactive: [8] 110 % of control | [9] 107 % of control | [10] 113 % of control

Cc1cc(N=[N+]=[N-])c2ccc(F)cc2n1
inactive: [8] 94 % of control | [9] 92 % of control

Cc1ccc(S(=O)(=O)NC(=O)NC2=NC(C)(C)N(c3ccc(Cl)c(Cl)c3)C(N)=N2)cc1
inactive: [8] 105 % of control | [9] 108 % of control | [10] 114 % of control

O=C(Nc1cccc(NC(=O)Nc2cccc(C3=NCCN3)c2)c1)Nc1cccc(C2=NCCN2)c1
inactive: dose: 90.0 mg/kg/injection, schedule: Q01DX010 (ip), vehicle: saline 100 % of control

CC1=CC(C)(C)Nc2ccccc21
inactive: [1] 108 % of control | [2] 114 % of control | dose: 400.0 mg/kg/injection, schedule: Q01DX009 (ip), vehicle: Klucel (hydroxypropylcellulose) (HPC) 110 % of control

Br[C](Br)(Br)[Hg][c]1ccccc1
inactive: dose: 3.13 mg/kg/injection, schedule: Q01DX009 (ip), vehicle: saline with Tween-80 106 % of control | dose: 6.25 mg/kg/injection, schedule: Q01DX009 (ip), vehicle: saline with Tween-80 100 % of control | [6] 104 % of control

N#Cc1c(N)nc2c(c(-c3ccc(Cl)cc3)nn2-c2ccccc2)c1C#N
inactive: dose: 7.5 mg/kg/injection, schedule: Q01DX005 (ip), vehicle: saline with Tween-80 97 % of control | dose: 15.0 mg/kg/injection, schedule: Q01DX005 (ip), vehicle: saline with Tween-80 86 % of control and 96 % of control | dose: 30.0 mg/kg/injection, schedule: Q01DX005 (ip), vehicle: saline with Tween-80 89 % of control and 90 % of control | [9] 86 % of control and 91 % of control | [10] 93 % of control

CCCCNC1C2CCC(C)(C1O)C2(C)C (stereo unspecified)
inactive: [3] 97 % of control

CC(=O)OCC1OC(OC2C(COC(C)=O)OC(Sc3ccccc3)C(OC(C)=O)C2OC(C)=O)C(OC(C)=O)C(OC(C)=O)C1OC(C)=O (stereo unspecified)
inactive: [3] 100 % of control | [4] 100 % of control | dose: 100.0 mg/kg/injection, schedule: Q04DX002 (ip), vehicle: Klucel (hydroxypropylcellulose) (HPC) 94 % of control | [5] 109 % of control | dose: 200.0 mg/kg/injection, schedule: Q04DX002 (ip), vehicle: Klucel (hydroxypropylcellulose) (HPC) 91 % of control
